# In ChEMBL document CHEMBL1221220, “Transport and signaling via the amino acid binding site of the yeast Gap1 amino acid transceptor” (Nat Chem Biol, 2009):
# Non-standard residues stand in square brackets, D forms with d. Residues, ends and D or L forms follow the SMILES beside them. *: point of attachment. Cit = NC(=O)NCCC[C@H](N)C(=O)O; NMeD = CN[C@@H](CC(=O)O)C(=O)O; NMeL = CN[C@@H](CC(C)C)C(=O)O; pGlu = O=C1CC[C@@H](C(=O)O)N1; Boc = CC(C)(C)OC(=O)*; Aib = CC(C)(N)C(=O)O; βAla = NCCC(=O)O; Sar = CNCC(=O)O
# Target: T1, General amino-acid permease GAP1 (Saccharomyces cerevisiae) (UniProt P19145)
# T1 sequence (whole entry): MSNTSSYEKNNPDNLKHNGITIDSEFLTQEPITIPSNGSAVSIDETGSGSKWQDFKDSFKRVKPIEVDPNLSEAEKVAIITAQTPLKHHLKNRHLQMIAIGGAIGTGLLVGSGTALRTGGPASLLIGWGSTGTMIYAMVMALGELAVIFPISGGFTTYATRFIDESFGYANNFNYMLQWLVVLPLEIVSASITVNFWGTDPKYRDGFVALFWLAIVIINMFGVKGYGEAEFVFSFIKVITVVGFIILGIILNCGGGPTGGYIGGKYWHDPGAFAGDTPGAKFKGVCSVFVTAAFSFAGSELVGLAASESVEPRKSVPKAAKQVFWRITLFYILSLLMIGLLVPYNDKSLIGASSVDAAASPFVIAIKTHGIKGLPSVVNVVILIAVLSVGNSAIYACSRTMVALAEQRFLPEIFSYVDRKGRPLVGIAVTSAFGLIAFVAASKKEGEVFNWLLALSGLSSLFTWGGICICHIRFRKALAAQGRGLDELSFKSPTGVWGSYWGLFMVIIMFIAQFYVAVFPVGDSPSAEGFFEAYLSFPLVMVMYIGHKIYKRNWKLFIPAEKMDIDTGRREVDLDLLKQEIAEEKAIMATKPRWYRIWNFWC
# Conditions: sigma1278b, at 5 mM
# Description: Inhibition of nitrogen-starved wild type sigma1278b yeast Gap1-mediated amino acid uptake at 5 mM after 60 secs relative to L-citrulline
# 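Note: amino acid uptake through Gap1 in nitrogen-starved wild-type yeast cells, measured after 60 s and expressed relative to L-citrulline.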
row,SMILES,inhibition [%]
1,CCOC(=O)[C@@H](N)Cc1c[nH]c2ccccc12,< 15
2,CC(C)C[C@H](N)C(=O)NCC(=O)N1CCC[C@H]1C(=O)O (H-Leu-Gly-Pro-OH),< 15
3,CSCC[C@H](N)C(=O)N[C@@H](Cc1cnc[nH]1)C(=O)O (H-Met-His-OH),< 15
4,CC(C)(C)OC(=O)[C@@H](N)CSSC[C@H](N)C(=O)OC(C)(C)C,< 15
5,CN(CC(=O)O)C(=O)CNC(=O)CN (H-Gly-Gly-[Sar]-OH),< 15
6,CC(=O)N[C@@H](COC(C)(C)C)C(=O)O,< 15
7,O=C(O)[C@H]1CNCCN1,< 15
8,N[C@@H](Cc1ccccc1)C(=O)NCC(=O)O (H-Phe-Gly-OH),< 15
9,CSCC[C@H](NC(=O)OC(C)(C)C)C(=O)O,< 15
10,N[C@@H](CO)C(=O)N[C@@H](Cc1ccc(O)cc1)C(=O)O (H-Ser-Tyr-OH),< 15
11,N[C@@H](Cc1c[nH]c2ccccc12)C(=O)N[C@@H](CCC(=O)O)C(=O)O (H-Trp-Glu-OH),< 15
12,NCC(=O)NCC(=O)N[C@@H](Cc1ccc(O)cc1)C(=O)O (H-Gly-Gly-Tyr-OH),< 15
13,NCC(=O)NCC(=O)N[C@@H](Cc1ccccc1)C(=O)O (H-Gly-Gly-Phe-OH),< 15
14,CC[C@H](C)[C@H](NC(=O)OC(C)(C)C)C(=O)O,< 15
15,O=C(N[C@@H](CO)C(=O)O)OCc1ccccc1,< 15
16,CC(N)(Cc1ccccc1)C(=O)O (configuration not stated),< 15
17,CN[C@@H](CC(=O)O)C(=O)N[C@@H](Cc1ccccc1)C(N)=O (H-[NMeD]-Phe-NH2),< 15
18,COC(=O)[C@@H](N)CO,< 15
19,CC(C)(C)OC(=O)[C@@H](N)Cc1ccccc1,< 15
20,NC(=O)[C@@H](N)CO,< 15
21,N[C@@H](Cc1c[nH]cn1)C(=O)NCC(=O)O (H-His-Gly-OH),< 15
22,N[C@@H](CCC(=O)O)C(=O)N[C@@H](Cc1c[nH]c2ccccc12)C(=O)N[C@@H](CCC(=O)O)C(=O)O (H-Glu-Trp-Glu-OH),< 15
23,CCOC(=O)[C@@H](N)CCSC,< 15
24,CC(C)(C)OC(=O)NC1(C(=O)O)CCCC1,< 15
25,NCC(=O)N[C@@H](Cc1cnc[nH]1)C(=O)NCC(=O)O (H-Gly-His-Gly-OH),< 15
26,NCC(=O)N[C@@H](CO)C(=O)NCCS(=O)(=O)O,< 15
27,CC(C)[C@@H](NC(=O)OC(C)(C)C)C(=O)O,< 15

row,SMILES,inhibition [%]
1,NCC(=O)NCC(=O)NCCC(=O)O (H-Gly-Gly-[βAla]-OH),< 15
2,N[C@@H](Cc1ccc(O)cc1)C(=O)N[C@@H](Cc1ccc(O)cc1)C(=O)NCC(=O)O (H-Tyr-Tyr-Gly-OH),< 15
3,CC(=O)N1CCC[C@H]1C(=O)N[C@@H](Cc1ccccc1)C(=O)N[C@@H](CCCNC(=N)N)C(=O)O (Ac-Pro-Phe-Arg-OH),< 15
4,NCC(=O)NCC(=O)N1CCC[C@H]1C(=O)O (H-Gly-Gly-Pro-OH),< 15
5,NCC(=O)N1CCC[C@H]1C(=O)O (H-Gly-Pro-OH),< 15
6,COC(=O)[C@H](C)N,< 15
7,N[C@@H](CCC(=O)O)C(=O)N[C@@H](CCC(=O)O)C(=O)O (H-Glu-Glu-OH),< 15
8,COC(=O)[C@@H](N)CC(C)C,< 15
9,N[C@@H](CCC(=O)O)C(=O)N[C@@H](Cc1ccc(O)cc1)C(=O)N[C@@H](CCC(=O)O)C(=O)O (H-Glu-Tyr-Glu-OH),15
10,CSCC[C@H](NC(=O)[C@@H](N)Cc1ccc(O)cc1)C(=O)NCC(=O)O (H-Tyr-Met-Gly-OH),< 15
11,CC(C)(C)OC(=O)N[C@@H](Cc1cnc[nH]1)C(=O)O,< 15
12,CC(C)(C)OC(=O)N[C@@H](Cc1ccccc1)C(=O)O,> 30
13,CC(C)(C)OC(=O)N[C@@H](CO)C(=O)O,< 15
14,NCC(=O)N[C@H](Cc1ccccc1)C(=O)O,> 30
15,N[C@H]1CSSC[C@@H](C(=O)O)NC1=O,15
16,CSCC[C@@H](N)C(=O)NCC(=O)O (H-[dM]-Gly-OH),< 15
17,CC[C@H](C)[C@H](N)C(=O)OC,< 15
18,CC(C)(C)OC(=O)NCCC[C@H](N)C(=O)O,< 15
19,C[C@H](NC(=O)OC(C)(C)C)C(=O)NC(C)(C)C(=O)O (Boc-Ala-[Aib]-OH),< 15
20,CCOC(=O)[C@@H](N)Cc1ccccc1,< 15
21,N[C@@H](CC(=O)O)C(=O)N[C@@H](CO)C(=O)O (H-Asp-Ser-OH),< 15
22,CC(C)C[C@@H](N)CO,< 15
23,COC(=O)[C@@H]1C=CCN1,< 15
24,O=C(O)CNC(=O)[C@H](Cc1cnc[nH]1)NC(=O)[C@@H]1CCC(=O)N1 ([pGlu]-His-Gly-OH),< 15
25,CC(C)(C)OC(=O)NCC(=O)N1CCC[C@H]1C(=O)N1CCC[C@H]1C(=O)O (Boc-Gly-Pro-Pro-OH),< 15
26,CC(C)(C)OC(=O)N1CCC[C@H]1C(=O)O,< 15
27,C[C@H](N)C(=O)NCC(=O)O,> 30

# The remaining lines, values ahead:
row,inhibition [%],SMILES
1,> 30,CC(C)C[C@H](N)C(=O)N[C@@H](Cc1ccc(O)cc1)C(=O)O
2,< 15,CC(C)C[C@H](NC(=O)[C@@H](N)[C@@H](C)O)C(=O)O (H-Thr-Leu-OH)
3,< 15,CN[C@@H](CC(C)C)C(=O)NCC(=O)O (H-[NMeL]-Gly-OH)
4,< 15,CC[C@H](C)[C@H](NC(=O)[C@@H](N)CC(C)C)C(=O)O (H-Leu-Ile-OH)
5,15,CCCC(NC(=O)CN)C(=O)O (racemic)
6,15,CC(C)C[C@H](NC(=O)[C@H](CC(C)C)NC(=O)[C@@H](N)CC(=O)O)C(=O)O (H-Asp-Leu-Leu-OH)
7,< 15,CC(C)C[C@H](NC(=O)[C@@H](NC(=O)[C@@H](N)[C@@H](C)O)C(C)C)C(=O)O (H-Thr-Val-Leu-OH)
8,< 15,CC(C)C[C@H](NC(=O)CNC(=O)[C@@H](N)CC(C)C)C(=O)O (H-Leu-Gly-Leu-OH)
9,< 15,C[C@H](NC(=O)CNC(=O)CN)C(=O)O
10,< 15,NCCCC(=O)N[C@@H](Cc1cnc[nH]1)C(=O)O
11,< 15,CSCC[C@H](NC(=O)[C@H](CC(C)C)NC(=O)CN)C(=O)O (H-Gly-Leu-Met-OH)
12,< 15,CC(C)[C@@H](NC(=O)CN)C(=O)O
13,> 30,NCCCC[C@H](NC(=O)[C@@H](N)Cc1ccc(O)cc1)C(=O)O (H-Tyr-Lys-OH)
14,< 15,CSCC[C@H](N)C(=O)N[C@@H](C)C(=O)N[C@@H](CO)C(=O)O (H-Met-Ala-Ser-OH)
15,< 15,CC(C)C[C@@H](N)C(=O)N[C@H](Cc1ccc(O)cc1)C(=O)O
16,< 15,CC(C)C[C@H](NC(=O)CCN)C(=O)O
17,< 15,NC(=O)CC[C@H](NC(=O)[C@@H](N)CO)C(=O)O (H-Ser-Gln-OH)
18,< 15,NCC(=O)N[C@@H](Cc1cnc[nH]1)C(=O)O (H-Gly-His-OH)
19,< 15,CSCC[C@H](NC(=O)[C@@H](N)CCSC)C(=O)O (H-Met-Met-OH)
20,< 15,CSCC[C@H](N)C(=O)N[C@@H](CC(C)C)C(=O)O (H-Met-Leu-OH)
21,< 15,CCCC(NC(=O)C(C)N)C(=O)O (racemic)
22,< 15,CC(C)C[C@@H](N)C(=O)N[C@@H](CC(C)C)C(=O)O

row,inhibition [%],SMILES
1,< 15,CC[C@H](C)[C@H](NC(C)=O)C(=O)O
2,< 15,CC(C)C[C@H](NC(=O)CCCN)C(=O)O
3,< 15,CSCC[C@H](NC(=O)[C@H](CC(C)C)NC(=O)CN)C(N)=O (H-Gly-Leu-Met-NH2)
4,< 15,CC(C)C[C@H](NC(=O)CN)C(=O)O
5,< 15,CC(C)[C@H](NC(=O)[C@@H](N)CCCNC(N)=O)C(=O)O (H-[Cit]-Val-OH)
6,15,CC(C)C[C@H](NC(=O)CN)C(=O)O (racemic)
7,> 30,CC(C)C[C@H](NC(=O)[C@@H](N)CC(C)C)C(=O)NCCC(=O)O (H-Leu-Leu-[βAla]-OH)
8,< 15,CSCC[C@H](NC(=O)CN)C(=O)N[C@@H](CC(C)C)C(=O)O (H-Gly-Met-Leu-OH)
9,15,C[C@H](NC(=O)CN)C(=O)O (H-Gly-Ala-OH)
10,< 15,CC[C@H](C)[C@H](N)C(=O)N[C@@H](CO)C(=O)O (H-Ile-Ser-OH)
11,15,CC(NC(=O)CN)C(=O)O (racemic)
12,< 15,CSCC[C@H](N)C(=O)N[C@@H](CO)C(=O)O (H-Met-Ser-OH)
13,< 15,N[C@@H](CO)C(=O)N[C@@H](CO)C(=O)O (H-Ser-Ser-OH)
14,< 15,CC(C)C[C@@H](NC(=O)OC(C)(C)C)C(=O)O
15,< 15,CC(=O)NCCCC[C@H](NC(C)=O)C(=O)O
16,< 15,CC(C)[C@H](N)C(=O)N[C@@H](CO)C(=O)O (H-Val-Ser-OH)
17,< 15,CSCC[C@H](N)C(=O)N[C@@H](C)C(=O)O (H-Met-Ala-OH)
18,> 30,CC[C@H](C)[C@H](N)C(=O)N[C@@H](CC(C)C)C(=O)O (H-Ile-Leu-OH)
19,< 15,CSCC[C@H](N)C(=O)NCC(=O)N[C@@H](CC(=O)O)C(=O)O (H-Met-Gly-Asp-OH)
20,< 15,C[C@H](NC(=O)[C@@H](N)[C@@H](C)O)C(=O)O (H-Thr-Ala-OH)
21,< 15,CC(C)C[C@H](N)C(=O)N[C@@H](C)C(=O)O (H-Leu-Ala-OH)
